Key:
[1] = system: yeast cells (Yeast strain Carlsbergensis); assay: Yeast fermentation assay (rate of CO2 production under anaerobic conditions); assay type: cell-based, S. carlsbergensis; details: synthetic chromium complexes; for Activity in yeast fermentation assay, CO2 production (in words): different concentrations
Description: The cells were kept on a solid chromium depleted medium that contained 6.7 g yeast nitrogen base, 20 g of glucose, and 18 g agar per liter. Cells were grown over night in a liquid medium without Cr. Yeast cells were harvested during stationary phase, washed twice and resuspended in 0.1M phosphate buffer pH 5.7. An aliquot of 3×10^8 cells/ml was anaerobically incubated at 30° C. in Warburg vessels in the presence of 10 mM glucose and the examined fraction of GTF extracted from yeast. Enhancement of fermentation rate by natural or synthetic chromium compounds was measured.
Yeast cells were grown over night in liquid medium without Cr. Yeast cells were harvested during stationary phase, washed twice and resuspended in 0.1M phosphate buffer pH 5.7. An aliquot of 3×10^7 cells/ml was anaerobically incubated at 30° C. in Warburg vessels in the presence of 10 mM glucose and the examined fractions extracted from Saltbush.
The activity of the synthetic chromium complexes was examined in the yeast fermentation assay as described above. All the complexes were tested by adding samples of the subject complex, and measuring the rate of CO2 production.

[2] = system: streptozoatocin diabetic rats; assay: Effect on insulin activity / blood glucose in streptozotocin diabetic rats; assay type: in vivo; details: single dose; insulin at marginal dose 0.005-0.025 mg/Kg body weight
Description: Sprague Dawly male rats weighing 120-130 g were injected subcutanously with a single dose of streptozotocin (60 mg/kg body weight) in 0.5 ml citrate buffer, 0.05 M pH 4.5. Plasma glucose concentrations were measured seven days later using commercial glucometer. Animals with blood glucose higher than 250 mg/dl were chosen for the subsequent test with fractions purified from yeast extract or the Saltbush, as described in section 5.1 and 5.2.
When a marginal dose of insulin (0.005-0.025 mg/Kg body weight ) was injected into streptozoatocin diabetic rats a decrease of 10%-15% in blood glucose was observed after the injection. A single dose of active chromium fraction extraction from yeast decreased blood glucose by 15%-20%. A combination of both insulin and chromium containing natural compound from yeast created much higher reduction in blood glucose of 40%-45% reduction.

| Compound | Activity in yeast fermentation assay, CO2 production (in words) [1] | Inhibition of yeast fermentation at high concentrations (in words) [1] | Decrease in blood glucose [2] | Activity in yeast fermentation assay, CO2 production (in words) ([1]; listed as Chromium axcorbate) |
| --- | --- | --- | --- | --- |
| N[C@@H](CCC(=O)N[C@@H](CS)C(=O)NCC(=O)O)C(=O)O.[Cr] [Cr-GSH, Chromium-Glutathione] | increases the production of CO2 | partial inhibition | – | – |
| insulin | – | – | 10%-15% | – |
| Chromium Ascorbate [Cr-Asc] | most active | without any inhibition | – | enhances the production of CO2 |
| CC(=O)N[C@@H](CS)C(=O)O.[Cr] [Cr-NAC, Chromium N-Acetyl Cysteine] | increases the production of CO2 | partial inhibition | – | – |
